# Measured values as given in US11130741B2 (Bioimics AB, priority 2016, dated 2021).
# Counter-ions that a name gives are not always drawn. Like-named read-outs stand apart in the source and are kept apart here.
# Key:
# [1] = test system: Escherichia coli (ATCC25922); assay: MIC, broth microdilution (CLSI), Escherichia coli ATCC25922
# [2] = test system: Staphylococcus aureus subsp. aureus (ATCC29213); assay: MIC, broth microdilution (CLSI), Staphylococcus aureus subsp. aureus ATCC29213; format: cell-based; conditions: ATCC29213, Table 15, read-out: S. aureus ("wound") (MIC)
# [3] = ATCC25922, read-out: E. coli MIC, Table 15, NI = No inhibition
# [4] = ATCC25922, read-out: E. coli MIC
SMILES,"MIC [1, 3]",MIC [2],"MIC [1, 4]"
"Cl.NCCN1CCC(Nc2cc(C(F)(F)F)cc3c2Nc2ccc(N4CCCC(F)C4)cc2S3)CC1 (centres unmarked) [compound 318, N-(1-(2-aminoethyl)piperidin-4-yl)-7-(3-fluoro-piperidin-1-yl)-3-(trifluoromethyl)-10H-phenothiazin-1-amine hydrochloride]",16 mg/L,8 mg/L,
"Cl.NCCN1CCC(Nc2cc(C(F)(F)F)cc3c2Nc2ccc(N4CCC4)cc2S3)CC1 [compound 296, N-(1-(2-aminoethyl)piperidin-4-yl)-7-(azetidin-1-yl)-3-(trifluoromethyl)-10H-phenothiazin-1-amine hydrochloride]",8 mg/L,4 mg/L,
"NCCNCCCNc1cc(C(F)(F)F)cc2c1Nc1ccc(C3CCCC3)cc1S2 [compound 353, N1-(2-aminoethyl)-N3-(7-cyclopentyl-3-(trifluoromethyl)-10H-phenothiazin-1-yl) propane-1,3-diamine hydrochloride]",,2 mg/L,8 mg/L
"Cl.Cl.Cl.NCCCN1c2ccc(Br)cc2Sc2cc(N3CCN(CCN)CC3)ccc21 [compound 278, 3-(3-(4-(2-aminoethyl)piperazin-1-yl)-7-bromo-10H-phenothiazin-10-yl)propan-1-amine hydrochloride]",128 mg/L,32 mg/L,
"CC(=O)Nc1cc(C(F)(F)F)cc2c1Nc1ccc(N3CCCC3)cc1S2.Cl [compound 328, N-(7-(pyrrolidin-1-yl)-3-(trifluoromethyl)-10H-phenothiazin-1-yl)acetamide hydrochloride]",> 128 mg/L,16 mg/L,
"CC1CCCN1c1ccc2c(c1)Sc1cc(C(F)(F)F)cc(NC3CCN(CCN)CC3)c1N2.Cl.Cl (centres unmarked) [compound 316, N-(1-(2-aminoethyl)piperidin-4-yl)-7-(2-methyl-pyrrolidin-1-yl)-3-(trifluoromethyl)-10H-phenothiazin-1-amine hydrochloride]",8 mg/L,2 mg/L,
"CC1CC(C)CN(c2ccc3c(c2)Nc2c(NC4CCN(CCN)CC4)cc(C(F)(F)F)cc2S3)C1.Cl (centres unmarked) [compound 357, N-(1-(2-aminoethyl)piperidin-4-yl)-8-(3,5-dimethyl-piperidin-1-yl)-3-(trifluoromethyl)-10H-phenothiazin-1-amine hydrochloride]",64 mg/L,16 mg/L,
"Cl.Cl.NCCN1CCC(Nc2cc(C(=O)NNc3ccc(F)cc3)cc3c2Nc2ccccc2S3)CC1 [compound 280, 1-((1-(2-aminoethyl)piperidin-4-yl)amino)-N′-(4-fluorophenyl)-10H-phenothiazine-3-carbohydrazide hydrochloride]",64 mg/L,16 mg/L,
"Cl.NCCN1CCC(Nc2cc(C(F)(F)F)cc3c2Nc2ccc(C4=CCCC4)cc2S3)CC1 [compound 359, N-(1-(2-aminoethyl)piperidin-4-yl)-7-(cyclopent-1-en-1-yl)-3-(trifluoromethyl)-10H-phenothiazin-1-amine hydrochloride]",64 mg/L,16 mg/L,
"NCCCN1c2ccncc2Sc2cc(-c3cc4ccccc4[nH]3)ccc21 [compound 267, 3-(8-(1H-indol-2-yl)-5H-benzo[b]pyrido[4,3-e] [1,4]thiazin-5-yl)propan-1-amine trifluoro acetic acid]",,2 mg/L,16 mg/L
"NC1CCCC(C(=O)Nc2cc(C(F)(F)F)cc3c2Nc2ccncc2S3)C1 (centres unmarked) [compound 257, 3-amino-N-(8-(trifluoromethyl)-5H-benzo[e]pyrido[3,4-b][1,4]thiazin-6-yl)cyclohexanecarboxamide]",128 mg/L,64 mg/L,
"Cl.Cl.NCCN1CCC(Nc2cc(C(F)(F)F)cc3c2Nc2ccc(N4CCC(N)CC4)cc2S3)CC1 [compound 272, N-(1-(2-aminoethyl)piperidin-4-yl)-7-(4-aminopiperidin-1-yl)-3-(trifluoromethyl)-10H-phenothiazin-1-amine]",32 mg/L,16 mg/L,
"Cl.NCCNCCCNc1cc(C(F)(F)F)cc2c1Nc1ccc(N3CCCC3)cc1S2 [compound 345, N1-(2-aminoethyl)-N3-(7-(pyrrolidin-1-yl)-3-(trifluoromethyl)-10H-phenothiazin-1-yl)propane-1,3-diamine hydrochloride]",32 mg/L,4 mg/L,
"CC1CCCN(c2ccc3c(c2)Sc2cc(C(F)(F)F)cc(NC(=O)C4CCCC(N)C4)c2N3)C1.Cl.Cl (centres unmarked) [compound 313, 3-amino-N-(7-(3-methyl-piperidin-1-yl)-3-(trifluoromethyl)-10H-phenothiazin-1-yl)cyclohexane-1-carboxamide hydrochloride]",> 128 mg/L,16 mg/L,
"NCCN1CCN(c2ccc3c(c2)Sc2cc(C(F)(F)F)cc(NC4CCNCC4)c2N3)CC1 [compound 269, 7-(4-(2-aminoethyl)piperazin-1-yl)-N-(piperidin-4-yl)-3-(trifluoromethyl)-10H-phenothiazin-1-amine hydrochloride]",,16 mg/L,64 mg/L
"Cl.Cl.NCCN1CCC(Nc2cc(C(N)=O)cc3c2Nc2ccccc2S3)CC1 [compound 287, 1-((1-(2-aminoethyl)piperidin-4-yl)amino)-10H-phenothiazine-3-carboxamide hydrochloride]",,128 mg/L,> 128 mg/L
"NCCCN1c2ccc(C(=O)O)cc2Sc2cc(-c3cc4ccccc4[nH]3)ccc21 [compound 262, 10-(3-aminopropyl)-7-(1H-indol-2-yl)-10H-phenothiazine-3-carboxylic acid trifluoro acetic acid]",,32 mg/L,> 128 mg/L
"Cl.Cl.Cl.NCCC1CCN(c2ccc3c(c2)Sc2cc(C(F)(F)F)cc(NC4CCN(CCN)CC4)c2N3)CC1 [compound 273, 7-(4-(2-aminoethyl)piperidin-1-yl)-N-(1-(2-aminoethyl)piperidin-4-yl)-3-(trifluoromethyl)-10H-phenothiazin-1-amine hydrochloride]",32 mg/L,8 mg/L,
"COC1CCN(c2ccc3c(c2)Sc2cc(C(F)(F)F)cc(NC4CCN(CCN)CC4)c2N3)C1.Cl.Cl (centres unmarked) [compound 321, N-(1-(2-aminoethyl)piperidin-4-yl)-7-(3-methoxy-pyrrolidin-1-yl)-3-(trifluoromethyl)-10H-phenothiazin-1-amine hydrochloride]",32 mg/L,8 mg/L,
"CC1CC(C)CN(c2ccc3c(c2)Sc2cc(N4CCN(CCN)CC4)ccc2N3CCCN)C1.Cl.Cl.Cl.Cl (centres unmarked) [compound 286, 3-(3-(4-(2-aminoethyl)piperazin-1-yl)-7-(3,5-dimethyl-piperidin-1-yl)-10H-phenothiazin-10-yl)propan-1-amine hydrochloride]",128 mg/L,32 mg/L,
"CCOC(=O)c1ccc2c(c1)Sc1cc(N3CCN(CCN)CC3)ccc1N2CCCN [compound 271, ethyl 7-(4-(2-aminoethyl)piperazin-1-yl)-10-(3-aminopropyl)-10H-phenothiazine-3-carboxylate trifluoro acetic acid]",,128 mg/L,> 128 mg/L
"Cl.Cl.Cl.NCCNCC(=O)CNc1cc(C(F)(F)F)cc2c1Nc1ccc(N3CCCC3)cc1S2 [compound 317, 1-((2-aminoethyl)amino)-3-((7-(pyrrolidin-1-yl)-3-(trifluoromethyl)-10H-phenothiazin-1-yl)amino) propan-2-one hydrochloride]",128 mg/L,64 mg/L,
